Assay results as given in the supplement of paper PMC13380429.

Legend:
Conditions in all cases: 72 h
HepG2 [1] = assay: relative viability EC50 (midpoint between 100% and the lowest measured viability); higher = less toxic
Calu-3 [2] = assay: as above
U2OS [3] = assay: as above
Caco-2 [4] = assay: as above
Vero E6 [5] = assay: as above
HepG2 [6] = assay: drug sensitivity score (DSS) for viability; higher = more toxic; extreme values may be limits of the assay
Calu-3 [7] = assay: as above
U2OS [8] = assay: as above
Caco-2 [9] = assay: as above
Vero E6 [10] = assay: as above
HepG2 [11] = assay: cell viability relative to DMSO; higher = less toxic
Calu-3 [12] = assay: as above
U2OS [13] = assay: as above
Caco-2 [14] = assay: as above
Vero E6 [15] = assay: as above

| SMILES | relative viability EC50 (HepG2 [1]) [µM] | relative viability EC50 (Calu-3 [2]) [µM] | relative viability EC50 (U2OS [3]) [µM] | relative viability EC50 (Caco-2 [4]) [µM] | relative viability EC50 (Vero E6 [5]) [µM] | drug sensitivity score (HepG2 [6]) | drug sensitivity score (Calu-3 [7]) | drug sensitivity score (U2OS [8]) | drug sensitivity score (Caco-2 [9]) | drug sensitivity score (Vero E6 [10]) | cell viability (HepG2 [11]; 1 nM) [%] | cell viability (HepG2 [11]; 10 nM) [%] | cell viability (HepG2 [11]; 100 nM) [%] | cell viability (HepG2 [11]; 1000 nM) [%] | cell viability (HepG2 [11]; 10000 nM) [%] | cell viability (Calu-3 [12]; 1 nM) [%] | cell viability (Calu-3 [12]; 10 nM) [%] | cell viability (Calu-3 [12]; 100 nM) [%] | cell viability (Calu-3 [12]; 1000 nM) [%] | cell viability (Calu-3 [12]; 10000 nM) [%] | cell viability (U2OS [13]; 1 nM) [%] | cell viability (U2OS [13]; 10 nM) [%] | cell viability (U2OS [13]; 100 nM) [%] | cell viability (U2OS [13]; 1000 nM) [%] | cell viability (U2OS [13]; 10000 nM) [%] | cell viability (Caco-2 [14]; 1 nM) [%] | cell viability (Caco-2 [14]; 10 nM) [%] | cell viability (Caco-2 [14]; 100 nM) [%] | cell viability (Caco-2 [14]; 1000 nM) [%] | cell viability (Caco-2 [14]; 10000 nM) [%] | cell viability (Vero E6 [15]; 1 nM) [%] | cell viability (Vero E6 [15]; 10 nM) [%] | cell viability (Vero E6 [15]; 100 nM) [%] | cell viability (Vero E6 [15]; 1000 nM) [%] | cell viability (Vero E6 [15]; 10000 nM) [%] |
| --- | --- | --- | --- | --- | --- | --- | --- | --- | --- | --- | --- | --- | --- | --- | --- | --- | --- | --- | --- | --- | --- | --- | --- | --- | --- | --- | --- | --- | --- | --- | --- | --- | --- | --- | --- |
| O=C(O)c1ccc(O)c2ncccc12 [IOX1] | > 10 | > 10 | > 10 | > 10 | > 10 | 0 | 0 | 0 | 0 | 0 | 110 | 90.1 | 87.4 | 101 | 94.7 | 97.6 | 99.5 | 98.2 | 105 | 86.7 | 99.9 | 100 | 100 | 103 | 99.7 | 89 | 97.7 | 97.6 | 104 | 102 | 98 | 92.3 | 103 | 101 | 106 |
| C[C@]12CC[C@H]3[C@@H](CC[C@]4(O)C[C@@H](O)CC[C@]34C=O)[C@@]1(O)CC[C@@H]2C1=CC(=O)OC1 [K-strophanthidin] | 0.807 | 2.28 | 1.43 | 0.975 | 0.151 | 11.1 | 5.4 | 9.3 | 7.3 | 21.8 | 96.4 | 88.6 | 102 | 46.2 | 14.8 | 98.2 | 102 | 107 | 92 | 25.8 | 96.9 | 98.7 | 96.6 | 72.4 | 5.2 | 87.6 | 110 | 99.4 | 68.5 | 38.8 | 99.5 | 98.8 | 72.6 | 1.9 | 0.9 |
| N=C(N)SCCc1ccc(OCc2ccc([N+](=O)[O-])cc2)cc1 [KB-R7943] | > 10 | > 10 | > 10 | > 10 | > 10 | 1.7 | 0 | 0 | 0 | 0 | 96.2 | 108 | 108 | 90.3 | 78.8 | 104 | 110 | 93.5 | 99.6 | 98.4 | 96.5 | 105 | 98.3 | 105 | 102 | 88.7 | 103 | 99.2 | 97.2 | 94.5 | 99.7 | 101 | 99.2 | 97.4 | 90.4 |
| CSc1ccccc1Nc1nc(N2CCNCC2)nc2c(NCC3CC3)ncnc12 [KHK-IN-1] | 2.47 | 2.7 | 3.04 | 3.39 | 2.26 | 6.9 | 6.4 | 5.8 | 5.2 | 7.3 | 104 | 91 | 94.1 | 91.6 | 0 | 99.5 | 95.4 | 106 | 94.1 | 0.2 | 97.6 | 98.7 | 95.7 | 98.2 | 0.1 | 103 | 107 | 98.7 | 104 | 0.6 | 101 | 98.1 | 96.1 | 89.1 | 0.1 |
| O=C(Nc1ccccc1C(=O)Nc1ccc(CCO)cc1)c1ccc([N+](=O)[O-])cc1 [KS-176] | > 10 | > 10 | > 10 | > 10 | > 10 | 0.1 | 0 | 0 | 0 | 0 | 94 | 95 | 96.3 | 95.2 | 83.2 | 100 | 87.9 | 98.1 | 102 | 91.5 | 96.7 | 104 | 97.6 | 97.8 | 93.4 | 94 | 94.8 | 87.9 | 97.5 | 90.6 | 98.2 | 102 | 99.2 | 92.6 | 93.1 |
| N=C(N)NCCC[C@H](N)C(=O)O [L-arginine] | > 10 | > 10 | > 10 | > 10 | > 10 | 0 | 0 | 0 | 0 | 0 | 95.3 | 96.5 | 95.5 | 96 | 89.4 | 104 | 95.7 | 104 | 99 | 99.3 | 105 | 94.9 | 99.6 | 94.6 | 101 | 97.6 | 114 | 96.9 | 107 | 98.9 | 97.2 | 99.2 | 102 | 103 | 102 |
| N[C@@H](CS(=O)O)C(=O)O [L-cysteinesulfinic-acid] | > 10 | > 10 | > 10 | > 10 | > 10 | 0.2 | 0 | 0 | 0 | 0 | 93.5 | 90.9 | 77.8 | 89.9 | 102 | 94 | 97.3 | 105 | 111 | 107 | 99.5 | 97.3 | 98.5 | 106 | 101 | 96.8 | 93.2 | 102 | 105 | 101 | 91 | 95.8 | 93.2 | 95.1 | 102 |
| CN1CCN(C(=O)C2C(C(=O)O)[C@H]3CC[C@@H]2O3)CC1 (stereo not given in full) [LB-100] | > 10 | > 10 | > 10 | 1.58 | > 10 | 0 | 0.5 | 0 | 5.9 | 0 | 98.6 | 97.3 | 109 | 96.6 | 102 | 95.6 | 91.5 | 106 | 92.8 | 86.7 | 103 | 92.9 | 99.4 | 96.2 | 95.6 | 103 | 85.7 | 99.8 | 84.7 | 36.5 | 98.3 | 101 | 93.1 | 99 | 106 |
| CS(=O)(=O)OCOS(C)(=O)=O [MDMS] | > 10 | > 10 | > 10 | > 10 | > 10 | 0 | 0 | 0 | 0 | 0 | 109 | 97.1 | 112 | 112 | 107 | 102 | 103 | 95.9 | 100 | 97.7 | 100 | 102 | 99.6 | 106 | 104 | 104 | 105 | 98.1 | 99.7 | 101 | 99.8 | 98.4 | 102 | 98.7 | 101 |
| OCCc1ccc(OCCn2ccnc2)cc1 [MR-948] | > 10 | > 10 | > 10 | > 10 | > 10 | 0 | 0 | 0 | 0 | 0 | 89.2 | 104 | 96.7 | 106 | 106 | 96.4 | 99 | 97.6 | 105 | 104 | 99.4 | 99.9 | 98.6 | 96 | 96.8 | 94.9 | 93.1 | 86.3 | 108 | 99.8 | 90 | 98.6 | 94.8 | 95 | 107 |
| Cc1cc(-c2nncc3c(C(C)(C)C)c(OCc4ncnn4C)nn23)no1 [MRK-016] | > 10 | > 10 | > 10 | > 10 | > 10 | 0 | 0 | 0 | 0 | 0 | 105 | 94.9 | 104 | 98.1 | 96.8 | 104 | 111 | 108 | 93.9 | 100 | 101 | 104 | 99.1 | 101 | 102 | 97.7 | 104 | 96.6 | 89 | 97.2 | 100 | 102 | 98.5 | 97.6 | 94.5 |
| NS(=O)(=O)c1cccc2c1c([N+](=O)[O-])cc1nc(O)c(O)nc12 [NBQX] | > 10 | > 10 | > 10 | > 10 | > 10 | 0 | 0 | 0 | 0 | 0 | 101 | 105 | 101 | 92.7 | 106 | 101 | 85.9 | 92.4 | 93.9 | 103 | 104 | 106 | 98.5 | 103 | 102 | 102 | 99.3 | 97 | 95.6 | 102 | 103 | 100 | 101 | 101 | 99.8 |
| Nc1ncc2c(n1)CC(c1ccco1)CC2=O (stereo not given) [NKY-80] | > 10 | > 10 | > 10 | > 10 | > 10 | 0 | 0 | 0 | 0 | 0 | 103 | 105 | 109 | 105 | 91 | 106 | 96.1 | 110 | 101 | 94.8 | 96.4 | 97.3 | 99.7 | 97.6 | 100 | 97 | 98.3 | 102 | 86.4 | 97.6 | 101 | 104 | 100 | 97.7 | 101 |
| NC(=O)CN1CC[C@@H](NC(=O)[C@@H]2CCCN2)C1=O [PAOPA] | > 10 | > 10 | > 10 | > 10 | > 10 | 0 | 0 | 0 | 0 | 0 | 89.1 | 109 | 97 | 100 | 108 | 98.1 | 99.6 | 106 | 94.2 | 106 | 100 | 102 | 102 | 105 | 95.2 | 100 | 99.7 | 100 | 134 | 96.7 | 95.4 | 97.8 | 92.5 | 101 | 104 |
| N#Cc1ccccc1-c1cc(-c2ccccn2)cn(-c2ccccc2)c1=O [Perampanel] | > 10 | > 10 | > 10 | > 10 | > 10 | 0 | 0 | 0 | 0 | 0 | 98.7 | 108 | 104 | 105 | 119 | 90.5 | 97.5 | 96.5 | 103 | 95.6 | 94 | 94 | 99.6 | 96.2 | 99.7 | 90.5 | 106 | 97.5 | 93.6 | 104 | 92.1 | 101 | 95.4 | 96.9 | 92.4 |
